According to US9415096B2 (priority 2007, dated 2016):
Ends that are not written are not given here.

Tests used:
[1] = tested on: panc-1 cells; assay: Cytotoxicity test (chromium release assay) of peptide-induced killer T cells against panc-1; conditions: for HLA-A2 restricted and FOXM1-specific cytotoxic activity of induced killer T cells: chromium release assay, panc-1 (HLA-A2 positive) versus PK-8 (HLA-A2 negative); for cytotoxic activity against panc-1 cells: killer T cells from breast cancer patients induced with the peptide, panc-1 HLA-A2 positive, FOXM1-expressing
[2] = tested on: PK-8 cells; assay: Cytotoxicity test (chromium release assay) of peptide-induced killer T cells against PK-8; conditions: killer T cells from breast cancer patients induced with the peptide; PK-8 HLA-A2 negative, FOXM1 positive

| Sequence | HLA-A2 restricted and FOXM1-specific cytotoxic activity of induced killer T cells [1] | cytotoxic activity against panc-1 cells [1] | cytotoxic activity against PK-8 cells [2] |
| --- | --- | --- | --- |
| SLVLQPSVKV [FOXM1 373-382, SLVLQPSVKV] | HLA-A2 restricted and FOXM1-specific cytotoxic activity was observed | strong cytotoxic activity | did not show cytotoxic activity |
| YLVPIQFPV [FOXM1 362-370, YLVPIQFPV] | HLA-A2 restricted and FOXM1-specific cytotoxic activity was observed | strong cytotoxic activity | did not show cytotoxic activity |
| GLMDLSTTPL [FOXM1 640-649, GLMDLSTTPL] | HLA-A2 restricted and FOXM1-specific cytotoxic activity was observed | strong cytotoxic activity | did not show cytotoxic activity |
